# Measurements taken from ChEMBL document CHEMBL5729639, “FGFR4 inhibitor and preparation method and use thereof” (2023).
# Target: Fibroblast growth factor receptor 1 (Homo sapiens, UniProt P11362)
# Assay: Enzymologic Experiment of FGFR1: In this experiment, the inhibitory effect of the compounds on FGFR1 kinase activity was tested by a fluorescence resonance energy transfer (TR-FRET) method, and the half maximal inhibitory concentration (IC50) of the compounds on the FGFR1 kinase activity was determined. 1) 1˜5 μL of FGFR1 enzymatic solution was added to a 384-well plate, and the final concentration of the enzyme was 0.1˜5 nM. 2) 1˜5 μL of diluted solution in gradient of the compound was added.3) 1˜5 μL of a substrate mixture containing substrate polypeptide with a final concentration of 5˜50 nM and ATP with a final concentration of 10˜200 μM was added. 4) The mixture was incubated for 0.5-3 hours at room temperature. 5) 10 μL of EDTA and a test solution comprising labeled antibody were added, and the plate was incubated for 1 hour at room temperature. 6) The fluorescence signal values of each plate were determined by a microplate reader at 665 nm. 7) The inhibition rates were calculated according to the fluorescence signal values.
# Chain of Fibroblast growth factor receptor 1 (P11362 whole entry): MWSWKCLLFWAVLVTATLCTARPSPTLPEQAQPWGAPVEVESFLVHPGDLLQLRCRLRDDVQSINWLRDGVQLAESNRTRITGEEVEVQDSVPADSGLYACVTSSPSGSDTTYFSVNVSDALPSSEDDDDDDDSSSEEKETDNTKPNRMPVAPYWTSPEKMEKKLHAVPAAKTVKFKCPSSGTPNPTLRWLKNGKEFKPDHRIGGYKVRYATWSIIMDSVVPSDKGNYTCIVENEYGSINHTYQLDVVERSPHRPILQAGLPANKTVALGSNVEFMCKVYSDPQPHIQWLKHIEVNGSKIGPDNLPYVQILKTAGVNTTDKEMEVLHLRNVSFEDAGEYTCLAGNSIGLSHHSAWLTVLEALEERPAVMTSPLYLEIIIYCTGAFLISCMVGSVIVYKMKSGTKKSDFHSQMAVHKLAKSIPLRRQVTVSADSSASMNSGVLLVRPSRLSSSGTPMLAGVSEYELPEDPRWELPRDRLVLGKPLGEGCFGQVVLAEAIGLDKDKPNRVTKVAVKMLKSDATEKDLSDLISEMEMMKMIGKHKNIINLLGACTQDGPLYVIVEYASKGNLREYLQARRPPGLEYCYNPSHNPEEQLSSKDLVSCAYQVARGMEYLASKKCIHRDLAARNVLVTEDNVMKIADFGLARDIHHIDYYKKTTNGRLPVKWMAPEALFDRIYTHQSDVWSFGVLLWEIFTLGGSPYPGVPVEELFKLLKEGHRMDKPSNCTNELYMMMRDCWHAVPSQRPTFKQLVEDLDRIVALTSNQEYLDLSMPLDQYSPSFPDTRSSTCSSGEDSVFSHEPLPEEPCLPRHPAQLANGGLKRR
row,Compound,IC50 [µM]
1,COCCNc1cc(NC(=O)N2CCCc3cc(CN(C=O)[C@H]4CCOC4)c(C=O)nc32)ncc1C#N,> 10
2,COCCNc1cc(NC(=O)N2CCCc3cc(CN(C=O)C[C@H]4CCCO4)c(C=O)nc32)ncc1C#N,> 10
3,COC[C@@H](C)Nc1cc(NC(=O)N2CCCc3cc(CN4CC[C@@H](OC)C4=O)c(C=O)nc32)ncc1C#N,> 10
4,COCCNc1cc(NC(=O)N2CCCc3cc(CN(C=O)C[C@@H]4CCCO4)c(C=O)nc32)ncc1C#N,> 10
